Key:
Assay type in all cases: in vivo
[1] = tested on: Ceratitis capitata flies; assay: Photoinsecticidal action: fly survival after bait and sunlight irradiation; conditions: 3 μM in bait, 12 h after feeding, survival 1 h after irradiation
[2] = tested on: Ceratitis capitata (fruit fly); assay: Release of alkylated porphyrin from flies after feeding with bait interrupted; conditions: C. capitata, 1.25 μM porphyrin in the bait
Experimental: (§1) An appropriate number of flies (50 flies per each experiment) was caged in 115×55×70 mm Plexiglas cages with several holes (ø=0.5 mm) and starved for 36 h. Then, depending on the protocol to be adopted for each specific experiment, the flies were fed with the bait (10% sucrose and 1% autolysed yeast in neutral aqueous solution), which was either porphyrin-free or added with a predetermined concentration of the porphyrin. These flies were then used in the various experimental sessions.
(§2) At predetermined times, the flies were sacrificed by freezing; the dead flies were then homogenized with a Polytron in 10 ml of a 2% aqueous solution of sodium dodecylsulphate (SDS). The suspension was centrifuged for 10 min at 2,000 rpm, the pellet was discarded and known aliquots of the supernatant were diluted by means of a chloroform/methanol binary mixture (1/2, v/v). The porphyrin concentration was measured by reading the fluorescence emitted at wavelengths above 630 nm and interpolating the emission intensity with a calibration plot obtained with known amounts of the porphyrin. The results were expressed as nanomoles of porphyrin recovered per fly.

[3] = tested on: Bactrocera oleae (olive fly); assay: as above; conditions: B. oleae, 1.25 μM porphyrin in the bait
Experimental: as §1, §2

[4] = tested on: Stomoxis calcitrans (stable fly); assay: as above; conditions: S. calcitrans, 1.25 μM porphyrin in the bait
Experimental: as §1, §2

[5] = tested on: Ceratitis capitata flies; assay: Photoinsecticidal action: fly survival after bait and visible light irradiation (artificial lamp); conditions: for Survival (% of control untreated flies): survival 10 h after irradiation
Procedure, shortened: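 Medflies (1 week old, 50 per cage) starved 36 h, then fed 10% sucrose/1% autolysed yeast bait with or without porphyrin. Irradiated 1 h with filtered halogen lamp (360–850 nm) at 1220 μE s^−1m^−2; survival scored 10 h after irradiation, controls given porphyrin-free bait.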

[6] = tested on: Ceratitis capitata flies; assay: Insecticidal action in the dark: fly survival after porphyrin bait; conditions: dark, fed 24 h, survival 12 h after change to porphyrin-free bait
Procedure, shortened: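 Flies fed porphyrin-containing bait, then switched to porphyrin-free bait; survivors counted 12 h after the switch, in darkness. Control flies received bait without porphyrin (0 μM).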

[7] = tested on: Ceratitis capitata (fruit fly); assay: Uptake of alkylated porphyrins by flies fed porphyrin-containing bait; conditions: C. capitata
Experimental: (§3) Porphyrins: • a) meso[tri(N-methyl-pyridyl), mono(N-dodecyl-pyridyl)]porphine (abbr.: C12) • b) meso[tri(N-methyl-pyridyl), mono(N-tetradecyl-pyridyl)]porphine (abbr.: C14) • c) meso[tri(N-methyl-pyridyl), mono(N-octadecyl-pyridyl)]porphine (abbr.: C18) Bait: Aqueous solution containing 10% sucrose and 1% autolysed yeast Flies: • a) Ceratitis capitata (fruit fly) age: 1 week; weight: 5-6 mg • b) Bactrocera oleae (olive fly) age: 10 days; weight: 4-4.5 mg • c) Stomoxis calcitrans (stable fly) age: 10 days; weight: 12 mg Irradiation: • a) High pressure halogen lamp, equipped with infrared and UV filters, emission 360-850 nm, operated at intensities in the 760-2,000 μE s^−1m^−2 range • b) Sunlight, mid June at Padua latitude, average intensity of […] μE s^−1m^−2 with minimum and maximum values of 950 and, respectively, 1,380 μE s^−1m^−2
as §1, §2

[8] = tested on: Bactrocera oleae (olive fly); assay: as above; conditions: B. oleae
Experimental: as §3, §1, §2

[9] = tested on: Stomoxis calcitrans (stable fly); assay: as above; conditions: S. calcitrans
Experimental: as §3, §1, §2

[10] = exposure time to bait 3 h, porphyrin in bait 1.24 μM
[11] = exposure time to bait 12 h, porphyrin in bait 1.24 μM
[12] = exposure time to bait 24 h, porphyrin in bait 1.24 μM
[13] = porphyrin concentration in bait 0.75 (μmoles), feeding 24 h
[14] = porphyrin concentration in bait 1.25 (μmoles), feeding 24 h
[15] = porphyrin concentration in bait 2.10 (μmoles), feeding 24 h
[16] = porphyrin concentration in bait 3.50 (μmoles), feeding 24 h
[17] = porphyrin concentration in bait 6.00 (μmoles), feeding 24 h

Question: For CCCCCCCCCCCCCCCCCC[n+]1ccc(-c2c3nc(c(-c4cc[n+](C)cc4)c4ccc([nH]4)c(-c4cc[n+](C)cc4)c4nc(c(-c5cc[n+](C)cc5)c5ccc2[nH]5)C=C4)C=C3)cc1 [C18, meso[tri(N-methyl-pyridyl), mono(N-octadecyl-pyridyl)]porphine], which “Survival (% of control untreated flies)” value ([1]; sunlight (average 1150 μE s^−1m^−2) 15 min) is on record?
Answer: 80 % of control untreated flies

Question: And the “Survival (% of control untreated flies)” value ([1]; sunlight (average 1150 μE s^−1m^−2) 30 min)?
Answer: 75 % of control untreated flies

Question: What about the “Survival (% of control untreated flies)” value ([1]; sunlight (average 1150 μE s^−1m^−2) 45 min) of the same compound?
Answer: 61 % of control untreated flies

Question: And the “Survival (% of control untreated flies)” value ([1]; sunlight (average 1150 μE s^−1m^−2) 60 min)?
Answer: 31 % of control untreated flies

Question: And the “Recoveries (nmoles of porphyrin per fly), release” value ([2]; 12 h after feeding interrupted)?
Answer: 3.7 nmoles of porphyrin per fly

Question: And the “Recoveries (nmoles of porphyrin per fly), release” value ([2]; 24 h after feeding interrupted)?
Answer: 2.2 nmoles of porphyrin per fly

Question: What about the “Recoveries (nmoles of porphyrin per fly), release” value ([2]; 48 h after feeding interrupted) of the same compound?
Answer: 1.0 nmoles of porphyrin per fly

Question: What about the “Recoveries (nmoles of porphyrin per fly), release” value ([3]; 12 h after feeding interrupted) of the same compound?
Answer: 3.8 nmoles of porphyrin per fly

Question: What about the “Recoveries (nmoles of porphyrin per fly), release” value ([3]; 24 h after feeding interrupted) of the same compound?
Answer: 1.7 nmoles of porphyrin per fly

Question: And the “Recoveries (nmoles of porphyrin per fly), release” value ([3]; 48 h after feeding interrupted)?
Answer: 0.6 nmoles of porphyrin per fly

Question: And the “Recoveries (nmoles of porphyrin per fly), release” value ([4]; 12 h after feeding interrupted)?
Answer: 4.2 nmoles of porphyrin per fly

Question: What about the “Recoveries (nmoles of porphyrin per fly), release” value ([4]; 24 h after feeding interrupted) of the same compound?
Answer: 2.3 nmoles of porphyrin per fly

Question: What about the “Recoveries (nmoles of porphyrin per fly), release” value ([4]; 48 h after feeding interrupted) of the same compound?
Answer: 1.1 nmoles of porphyrin per fly

Question: What about the “Survival (% of control untreated flies)” value ([5]; 3 μM in bait 24 h, time interval feeding-irradiation 0 h, irradiation 1 h at 1220 μE s^−1m^−2) of the same compound?
Answer: 45 % of control untreated flies

Question: And the “Survival (% of control untreated flies)” value ([5]; 3 μM in bait 24 h, time interval feeding-irradiation 12 h, irradiation 1 h at 1220 μE s^−1m^−2)?
Answer: 52 % of control untreated flies

Question: And the “Survival (% of control untreated flies)” value ([5]; 3 μM in bait 24 h, time interval feeding-irradiation 24 h, irradiation 1 h at 1220 μE s^−1m^−2)?
Answer: 64 % of control untreated flies

Question: And the “Survival (% of control untreated flies)” value ([5]; 3 μM in bait 24 h, time interval feeding-irradiation 48 h, irradiation 1 h at 1220 μE s^−1m^−2)?
Answer: 70 % of control untreated flies

Question: What about the “Survival (% of control untreated flies)” value ([5]; 3 μM in bait, fluence-rate 760 μE s^−1m^−2, irradiated 24 h after feeding (title)) of the same compound?
Answer: 52 % of control untreated flies

Question: What about the “Survival (% of control untreated flies)” value ([5]; 3 μM in bait, fluence-rate 1220 μE s^−1m^−2, irradiated 24 h after feeding (title)) of the same compound?
Answer: 45 % of control untreated flies

Question: What about the “Survival (% of control untreated flies)” value ([5]; 3 μM in bait, fluence-rate 1500 μE s^−1m^−2, irradiated 24 h after feeding (title)) of the same compound?
Answer: 40 % of control untreated flies

Question: And the “Survival (% of control untreated flies)” value ([5]; 3 μM in bait, fluence-rate 2000 μE s^−1m^−2, irradiated 24 h after feeding (title))?
Answer: 31 % of control untreated flies

Question: And the “photoinsecticidal action compared among alkylated porphyrins” value ([5]; irradiation with visible light or sunlight)?
Answer: drop in the overall photoactivity

Question: And the “Survival (% of control untreated flies)” value ([6]; 0.75 μM in bait)?
Answer: 100 % of control untreated flies

Question: What about the “Survival (% of control untreated flies)” value ([6]; 1.25 μM in bait) of the same compound?
Answer: 42 % of control untreated flies

Question: And the “Survival (% of control untreated flies)” value ([6]; 2.10 μM in bait)?
Answer: 29 % of control untreated flies

Question: And the “Survival (% of control untreated flies)” value ([6]; 3.00 μM in bait)?
Answer: 12 % of control untreated flies

Question: What about the “Survival (% of control untreated flies)” value ([6]; 5.00 μM in bait) of the same compound?
Answer: 2 % of control untreated flies

Question: And the “Survival (% of control untreated flies)” value ([6]; 8.10 μM in bait)?
Answer: 0 % of control untreated flies

Question: What about the “Recoveries (nmoles of porphyrin per fly)” value [7, 10] of the same compound?
Answer: 3.1 nmoles of porphyrin per fly

Question: What about the “Recoveries (nmoles of porphyrin per fly)” value [7, 11] of the same compound?
Answer: 6.6 nmoles of porphyrin per fly

Question: And the “Recoveries (nmoles of porphyrin per fly)” value [7, 12]?
Answer: 7.5 nmoles of porphyrin per fly

Question: And the “Recoveries (nmoles of porphyrin per fly)” value [7, 13]?
Answer: 3.6 nmoles of porphyrin per fly

Question: What about the “Recoveries (nmoles of porphyrin per fly)” value [7, 14] of the same compound?
Answer: 7.5 nmoles of porphyrin per fly

Question: And the “Recoveries (nmoles of porphyrin per fly)” value [7, 15]?
Answer: 8.3 nmoles of porphyrin per fly

Question: What about the “Recoveries (nmoles of porphyrin per fly)” value [7, 16] of the same compound?
Answer: 14.3 nmoles of porphyrin per fly

Question: What about the “Recoveries (nmoles of porphyrin per fly)” value [7, 17] of the same compound?
Answer: 16.2 nmoles of porphyrin per fly

Question: What about the “Recoveries (nmoles of porphyrin per fly)” value [8, 10] of the same compound?
Answer: 1.6 nmoles of porphyrin per fly

Question: And the “Recoveries (nmoles of porphyrin per fly)” value [8, 11]?
Answer: 7.7 nmoles of porphyrin per fly

Question: What about the “Recoveries (nmoles of porphyrin per fly)” value [8, 12] of the same compound?
Answer: 8.9 nmoles of porphyrin per fly

Question: And the “Recoveries (nmoles of porphyrin per fly)” value [8, 13]?
Answer: 5.2 nmoles of porphyrin per fly

Question: What about the “Recoveries (nmoles of porphyrin per fly)” value [8, 14] of the same compound?
Answer: 8.9 nmoles of porphyrin per fly

Question: What about the “Recoveries (nmoles of porphyrin per fly)” value [8, 15] of the same compound?
Answer: 9.7 nmoles of porphyrin per fly

Question: And the “Recoveries (nmoles of porphyrin per fly)” value [8, 16]?
Answer: 12.0 nmoles of porphyrin per fly

Question: What about the “Recoveries (nmoles of porphyrin per fly)” value [8, 17] of the same compound?
Answer: 12.9 nmoles of porphyrin per fly

Question: And the “Recoveries (nmoles of porphyrin per fly)” value [9, 10]?
Answer: 3.2 nmoles of porphyrin per fly

Question: And the “Recoveries (nmoles of porphyrin per fly)” value [9, 11]?
Answer: 8.9 nmoles of porphyrin per fly

Question: What about the “Recoveries (nmoles of porphyrin per fly)” value [9, 12] of the same compound?
Answer: 9.2 nmoles of porphyrin per fly

Question: And the “Recoveries (nmoles of porphyrin per fly)” value [9, 13]?
Answer: 5.9 nmoles of porphyrin per fly

Question: And the “Recoveries (nmoles of porphyrin per fly)” value [9, 14]?
Answer: 9.2 nmoles of porphyrin per fly

Question: What about the “Recoveries (nmoles of porphyrin per fly)” value [9, 15] of the same compound?
Answer: 12.8 nmoles of porphyrin per fly

Question: What about the “Recoveries (nmoles of porphyrin per fly)” value [9, 16] of the same compound?
Answer: 15.7 nmoles of porphyrin per fly

Question: And the “Recoveries (nmoles of porphyrin per fly)” value [9, 17]?
Answer: 15.7 nmoles of porphyrin per fly
